Values quoted from earlier work as cited in patent US20100160295A1, “TREATMENT OF RESTLESS LEG SYNDROME AND SLEEP DISORDERS” (SYNOSIA THERAPEUTICS, priority 2008, published 2010).

Tested on: RLS patients
Conditions: estimated; RLS treatment; cited from earlier work

Structure (SMILES): N[C@@H](Cc1ccc(O)c(O)c1)C(=O)O [levidopa]
- augmentation (worsening of symptoms following initiation of therapy), patients affected: 50-85%
